# Data published in paper PMC7218169 (Frontiers in Immunology, 2020).
# Where two headings read alike, the source gives them in different places.
# Columns and labels:
# [1] = 5 mg/m^2 BSA i.v. over 4 hours; for RMD-PK AUC1, Med: plasma, AUC0-inf non-compartmental from simulated individual concentrations
# [2] = tested on: CD4+ T cells; settings: median; 3 days after each RMD administration; not fully recovered by day 7 after RMD3
# [3] = tested on: histone H3 acetylation in lymphocytes; format: in vivo, human; settings: peripheral lymphocytes
# Procedure: The levels of histone H3 acetylation in lymphocytes (based on FSC/SCC scatter) were determined by flow cytometry from samples taken before (0 h) and at the end of each RMD infusion (RMD1−2−3) (4 h), at 8 and 24 h (+1 day) RMD1, and at 72 h (+3 days) and 7 days after (RMD1−2−3). Cryopreserverd PBMC were thawed 4 h before use, and 500,000 cells were blocked with 600 ul of PBS/10% FBS for 20 min and stained with polyclonal rabbit anti-acetyl histoneH3 (10 μg/ml, MerckMillipore #06–599) or normal rabbit serum (control stain, LifeTechnologies #10510) for 30 min. Cells were washed and subsequently incubated with donkey anti-rabbit IgG(H+L) (6 μg/mL, LifeTechnologies #A21206) for 30 min at room temperature in the dark. Cells were washed, re-suspended in 150 μl PBS and analyzed. ~50,000 events were acquired per sample. The median fluorescence intensity (MFI) for each sample was calculated by substracting the background MFI (isotype control stain) from the anti-acetyl histoneH3 stain.
# [4] = tested on: HIV-1; format: in vivo, human; settings: ultrasensitive single copy assay, during RMD1−2−3
# Procedure: To evaluate HIV-1 RNA below 20 copies/ml, 4–8 ml of plasma samples taken before (0 h) and at the end of each RMD infusion (4 h), at 8 and 24 h (+1 day) after RMD1, and 72 h (+3 days) and 7 days after RMD1−2−3 were ultracentrifugated at 170,000 g at 4°C for 30 min and viral RNA was extracted automatically using the m2000sp Abbot device. HIV-1 RNA copies were quantified using the Abbott Real-Time HIV-1 assay (Abbott Molecular Inc.) and in-house calibration curve sets as described ([38]). The limit of detection (2 HIV-1 RNA copies/mL) was calculated relative to the plasma volume.
# [5] = tested on: HIV-1; format: in vivo, human
# [6] = tested on: CD3+ T cells; format: in vivo, human; settings: over the three RMD doses; increases 3 days after each dose, maintained up to 1 week after RMD3
# Procedure: Activation of T cells was determined based upon HLA-DR expression on CD3^+ T cells. Cryopreserved PBMC were thawed, and 1,000,000 cells were stained with CD3 APC-Cy7, CD4 FITC, CD8 BV510 and HLA-DR PECy7 (BioLegend #344818, 300538, 301048, and 307616, respectively). Cells were collected on an LSRII instrument (BD), and data analyzed according to the gating criteria shown in Supplementary Figure 1 using FlowJo 10 software.
# [7] = tested on: early-treated HIV-1-infected individuals; settings: in vivo
structure (smiles),measurement,setting,value
"C/C=C1\NC(=O)[C@H]2CSSCC/C=C/[C@H](CC(=O)N[C@H](C(C)C)C(=O)N2)OC(=O)[C@H](C(C)C)NC1=O [RMD, Romidepsin]","RMD-PK AUC1, Med",[1]; MAP - Controllers (n=3),473.5
same,"RMD-PK AUC1, Med",[1]; MAP - Non Controllers (n=10),392.9
same,RMD concentrations in plasma by 24 h after dosing,"[1]; individual profiles simulated with population PK model, LC-MS/MS",nearly undetectable levels
same,Transient decrease of CD4+ T-cell counts,[2],248 cells/mm^3
same,Time of return of acH3 to baseline values after each dose,[3]; flow cytometry,3 days
same,Histone H3 acetylation (acH3) during each RMD infusion,"[3]; flow cytometry MFI, remained high during 4 h",increased rapidly
same,Kinetics of plasma HIV-1 RNA levels,[4],did not follow a clear pattern
same,Individuals with increases in CA HIV-1 RNA above 2-fold,[5]; at any time point after RMD administrations,80%
same,HIV-1 transcription (cell-associated HIV-1 RNA),"[5]; peripheral CD4+ T cells, normalized to TBP, relative to pre-RMD1, more pronounced after RMD2 and RMD3",transiently increased
same,Median increase of viral expression (CA HIV-1 RNA) at the end of each RMD infusion,"[5]; without correction by housekeeping gene, relative to before RMD1, normalization beyond 4 hours",higher than 2.5 fold
same,T-cell activation (proportion of CD3+/HLA-DR+ cells),[6],increased in a progressive manner
same,AE recorded after RMD1−2−3,[7],204 AE
same,"Abdominal distension, Grade 1 n",[7],4 n
same,"Abdominal distension, Grade 2 n",[7],1 n
same,"Abdominal distension, Grade 3 n",[7],0 n
same,"Abdominal distension, Grade 4 n",[7],0 n
same,"Abdominal distension, Total n (%)",[7],5 (33) n (%)
same,"Abdominal pain, Grade 1 n",[7],5 n
same,"Abdominal pain, Grade 2 n",[7],2 n
same,"Abdominal pain, Grade 3 n",[7],0 n
same,"Abdominal pain, Grade 4 n",[7],0 n
same,"Abdominal pain, Total n (%)",[7],7 (47) n (%)
same,"Anorexia, Grade 1 n",[7],8 n
same,"Anorexia, Grade 2 n",[7],1 n
same,"Anorexia, Grade 3 n",[7],0 n
same,"Anorexia, Grade 4 n",[7],0 n
same,"Anorexia, Total n (%)",[7],9 (60) n (%)
same,"Anxiety, Grade 1 n",[7],0 n
same,"Anxiety, Grade 2 n",[7],1 n
same,"Anxiety, Grade 3 n",[7],0 n
same,"Anxiety, Grade 4 n",[7],0 n
same,"Anxiety, Total n (%)",[7],1 (7) n (%)
same,"Constipation, Grade 1 n",[7],4 n
same,"Constipation, Grade 2 n",[7],2 n
same,"Constipation, Grade 3 n",[7],0 n
same,"Constipation, Grade 4 n",[7],0 n
same,"Constipation, Total n (%)",[7],6 (40) n (%)
same,"Dry mouth, Grade 1 n",[7],1 n
same,"Dry mouth, Grade 2 n",[7],0 n
same,"Dry mouth, Grade 3 n",[7],0 n
same,"Dry mouth, Grade 4 n",[7],0 n
same,"Dry mouth, Total n (%)",[7],1 (7) n (%)
same,"ECG: ST-elevation, Grade 1 n",[7],1 n
same,"ECG: ST-elevation, Grade 2 n",[7],0 n
same,"ECG: ST-elevation, Grade 3 n",[7],0 n
same,"ECG: ST-elevation, Grade 4 n",[7],0 n
same,"ECG: ST-elevation, Total n (%)",[7],1 (7) n (%)
same,"Fatigue, Grade 1 n",[7],9 n
same,"Fatigue, Grade 2 n",[7],5 n
same,"Fatigue, Grade 3 n",[7],0 n
same,"Fatigue, Grade 4 n",[7],0 n
same,"Fatigue, Total n (%)",[7],14 (93) n (%)
same,Grade 1-2 laboratory abnormalities related to RMD,[7],22 n
same,Grade 4 creatinine kinase elevation,[7],one
same,"Headache, Grade 1 n",[7],9 n
same,"Headache, Grade 2 n",[7],5 n
same,"Headache, Grade 3 n",[7],0 n
same,"Headache, Grade 4 n",[7],0 n
same,"Headache, Total n (%)",[7],14 (93) n (%)
same,Hypophosphatemia,[7],8 events
same,"Hypotension, Grade 1 n",[7],0 n
same,"Hypotension, Grade 2 n",[7],1 n
same,"Hypotension, Grade 3 n",[7],0 n
same,"Hypotension, Grade 4 n",[7],0 n
same,"Hypotension, Total n (%)",[7],1 (7) n (%)
same,"Individuals who vomited the days of RMD administration, percent",[7],27%
same,"Libido decrease, Grade 1 n",[7],0 n
same,"Libido decrease, Grade 2 n",[7],1 n
same,"Libido decrease, Grade 3 n",[7],0 n
same,"Libido decrease, Grade 4 n",[7],0 n
same,"Libido decrease, Total n (%)",[7],1 (7) n (%)
same,"Metallic taste, Grade 1 n",[7],5 n
same,"Metallic taste, Grade 2 n",[7],1 n
same,"Metallic taste, Grade 3 n",[7],0 n
same,"Metallic taste, Grade 4 n",[7],0 n
same,"Metallic taste, Total n (%)",[7],6 (40) n (%)
same,"Myalgia, Grade 1 n",[7],1 n
same,"Myalgia, Grade 2 n",[7],1 n
same,"Myalgia, Grade 3 n",[7],0 n
same,"Myalgia, Grade 4 n",[7],0 n
same,"Myalgia, Total n (%)",[7],2 (13) n (%)
same,"Nausea, Grade 1 n",[7],4 n
same,"Nausea, Grade 2 n",[7],7 n
same,"Nausea, Grade 3 n",[7],0 n
same,"Nausea, Grade 4 n",[7],0 n
same,"Nausea, Total n (%)",[7],11 (73) n (%)
same,"Palpitations, Grade 1 n",[7],3 n
same,"Palpitations, Grade 2 n",[7],0 n
same,"Palpitations, Grade 3 n",[7],0 n
same,"Palpitations, Grade 4 n",[7],0 n
same,"Palpitations, Total n (%)",[7],3 (20) n (%)
same,"Participants with grade 4 AE, sepsis by Shigella sonnei (SAE)",[7],One
same,"Rash, Grade 1 n",[7],0 n
same,"Rash, Grade 2 n",[7],2 n
same,"Rash, Grade 3 n",[7],0 n
same,"Rash, Grade 4 n",[7],0 n
same,"Rash, Total n (%)",[7],2 (13) n (%)
same,"Sepsis by Shigella sonnei (SAE), Grade 1 n",[7],0 n
same,"Sepsis by Shigella sonnei (SAE), Grade 2 n",[7],0 n
same,"Sepsis by Shigella sonnei (SAE), Grade 3 n",[7],0 n
same,"Sepsis by Shigella sonnei (SAE), Grade 4 n",[7],1 n
same,"Sepsis by Shigella sonnei (SAE), Total n (%)",[7],1 (7) n (%)
same,"Somnolence, Grade 1 n",[7],1 n
same,"Somnolence, Grade 2 n",[7],0 n
same,"Somnolence, Grade 3 n",[7],0 n
same,"Somnolence, Grade 4 n",[7],0 n
same,"Somnolence, Total n (%)",[7],1 (7) n (%)
same,"Sweating, Grade 1 n",[7],2 n
same,"Sweating, Grade 2 n",[7],2 n
same,"Sweating, Grade 3 n",[7],0 n
same,"Sweating, Grade 4 n",[7],0 n
same,"Sweating, Total n (%)",[7],4 (27) n (%)
same,Thrombocytopenia,[7],5 events
same,Tolerability at the regimen and dose administered,[7],well-tolerated
same,"Vomits, Grade 1 n",[7],4 n
same,"Vomits, Grade 2 n",[7],0 n
same,"Vomits, Grade 3 n",[7],0 n
same,"Vomits, Grade 4 n",[7],0 n
same,"Vomits, Total n (%)",[7],4 (27) n (%)
